In patent US8017602B2, “N-(2-(2-(5-hydroxy-3-oxo-3,4-dihydro-2H-benzo[b][1,4]oxazin-8-yl)ethylamino)ethyl)-3-(phenethoxy)propanamide derivatives, processes for their preparation, pharmaceutical compositions containing them and their use in therapy” (AstraZeneca AB, priority 2008, dated 2011):
Where a name gives a salt, the structure may show the parent alone.

How the values were obtained:
[1] = molecular target: T1, recombinant human Dopamine Subtype D2s receptors (Homo sapiens, UniProt P14416); assay: Dopamine D2 selectivity binding assay ([3H]-spiperone); settings: inhibition of [3H]-spiperone binding, human D2s membranes; read-out: D2 bind pIC50 (converted)
T1 construct: purchased Perkin Elmer
Protocol: (§1) Membranes containing recombinant human Dopamine Subtype D2s receptors were obtained from Perkin Elmer. These were diluted in Assay Buffer (50 mM HEPES, 1 mM EDTA, 120 mM NaCl, 0.1% gelatin, pH 7.4) to provide a final concentration of membranes that gave a clear window between maximum and minimum specific binding.
Assays were performed in U-bottomed 96-well polypropylene plates. 30 μL [^3H]-spiperone (0.16 nM final concentration) and 30 μl of test compound (10× final concentration) were added to each test well. For each assay plate 8 replicates were obtained for [^3H]-spiperone binding in the presence of 30 μL vehicle (10% (v/v) DMSO in Assay Buffer; defining maximum binding) or 30 μl Haloperidol (10 μM final concentration; defining non-specific binding (NSB)). Membranes were then added to achieve a final volume of 300 μL. The plates were incubated for 2 h at room temperature and then filtered onto PEI coated GF/B filter plates, pre-soaked for 1 h in Assay Buffer, using a 96-well plate Tomtec cell harvester. Five washes with 250 μl wash buffer (50 mM HEPES, 1 mM EDTA, 120 mM NaCl, pH 7.4) were performed at 4° C. to remove unbound radioactivity. The plates were dried then sealed from underneath using Packard plate sealers and MicroScint-O (50 μl) was added to each well. The plates were sealed (TopSeal A) and filter-bound radioactivity was measured with a scintillation counter (TopCount, Packard BioScience) using a 3-minute counting protocol.
(§2) Total specific binding (B0) was determined by subtracting the mean NSB from the mean maximum binding. NSB values were also subtracted from values from all other wells. […] Data was fitted to a four parameter logistic equation to determine the compound potency, which was expressed as pIC50 (negative log molar concentration inducing 50% inhibition of [^3H]-spiperone binding).

[2] = molecular target: T2, recombinant human α1D receptor (Homo sapiens, UniProt P25100); assay: Adrenergic α1D selectivity binding assay ([3H]-prazosin); settings: inhibition of [3H]-prazosin binding, HEK293 membranes, read-out: α1 bind pIC50 (converted)
T2 construct: expressed in transfected cells; host or cells: HEK293
T2 sequence (P25100 1-572): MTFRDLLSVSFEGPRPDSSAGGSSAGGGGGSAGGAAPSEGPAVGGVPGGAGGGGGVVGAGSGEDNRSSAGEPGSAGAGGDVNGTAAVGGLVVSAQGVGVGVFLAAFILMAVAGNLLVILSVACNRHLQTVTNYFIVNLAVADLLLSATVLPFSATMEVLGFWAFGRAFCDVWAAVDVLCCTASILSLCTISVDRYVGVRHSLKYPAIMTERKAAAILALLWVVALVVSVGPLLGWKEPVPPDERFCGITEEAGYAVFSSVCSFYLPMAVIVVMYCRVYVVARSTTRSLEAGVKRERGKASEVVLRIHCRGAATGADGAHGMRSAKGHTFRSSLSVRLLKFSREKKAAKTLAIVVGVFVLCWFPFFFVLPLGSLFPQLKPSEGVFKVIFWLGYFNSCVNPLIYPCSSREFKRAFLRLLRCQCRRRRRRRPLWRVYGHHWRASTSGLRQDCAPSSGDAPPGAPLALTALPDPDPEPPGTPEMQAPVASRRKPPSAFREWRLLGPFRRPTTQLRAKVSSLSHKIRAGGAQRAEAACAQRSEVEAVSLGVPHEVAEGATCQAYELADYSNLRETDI
Protocol: Membranes were prepared from human embryonic kidney 293 (HEK293) cells expressing recombinant human α1D receptor. These were diluted in Assay Buffer (50 mM HEPES, 1 mM EDTA, pH 7.4) to provide a final concentration of membranes that gave a clear window between maximum and minimum specific binding.
(§3) Assays were performed in U-bottomed 96-well polypropylene plates. 10 μl [^3H]-prazosin (0.3 nM final concentration) and 10 μl of test compound (10× final concentration) were added to each test well. For each assay plate 8 replicates were obtained for [^3H]-prazosin binding in the presence of 10 μl vehicle (10% (v/v) DMSO in Assay Buffer; defining maximum binding) or 10 μL BMY7378 (10 μM final concentration; defining non-specific binding (NSB)). Membranes were then added to achieve a final volume of 100 μL. The plates were incubated for 2 h at room temperature and then filtered onto PEI coated GF/B filter plates, pre-soaked for 1 h in Assay Buffer, using a 96-well plate Tomtec cell harvester. Five washes with 250 μl wash buffer (50 mM HEPES, 1 mM EDTA, pH 7.4) were performed at 4° C. to remove unbound radioactivity. The plates were dried then sealed from underneath using Packard plate sealers and MicroScint-O (50 μl) was added to each well. The plates were sealed (TopSeal A) and filter-bound radioactivity was measured with a scintillation counter (TopCount, Packard BioScience) using a 3-minute counting protocol.
as §2, with “[^3H]-prazosin” for “[^3H]-spiperone”

[3] = molecular target: T3, recombinant human adrenergic beta 1 receptors (Homo sapiens, UniProt P08588); assay: Adrenergic β1 selectivity binding assay ([125I]-Iodocyanopindolol); settings: inhibition of [125I]-Iodocyanopindolol binding, human β1 membranes; read-out: β1 bind p IC50 (converted)
T3 construct: purchased Euroscreen
Protocol: as §1, with “adrenergic beta 1” for “Dopamine Subtype D2s”, “Euroscreen.” for “Perkin Elmer.”
as §3, with “plates. 10 μL [^125I]-Iodocyanopindolol (0.036 nM final” for “plates. 10 μl [^3H]-prazosin (0.3 nM final”, “and 10 μL of test” for “and 10 μl of test”, “obtained for [^125I]-Iodocyanopindolol binding in” for “obtained for [^3H]-prazosin binding in”, “or 10 μl Propranolol (10 μM” for “or 10 μL BMY7378 (10 μM”, “with 250 μL wash buffer” for “with 250 μl wash buffer”, “mM EDTA, 120 mM NaCl, pH 7.4)” for “mM EDTA, pH 7.4)”
as §2, with “[^125I]-Iodocyanopindolol” for “[^3H]-spiperone”

T3 sequence (P08588 whole entry): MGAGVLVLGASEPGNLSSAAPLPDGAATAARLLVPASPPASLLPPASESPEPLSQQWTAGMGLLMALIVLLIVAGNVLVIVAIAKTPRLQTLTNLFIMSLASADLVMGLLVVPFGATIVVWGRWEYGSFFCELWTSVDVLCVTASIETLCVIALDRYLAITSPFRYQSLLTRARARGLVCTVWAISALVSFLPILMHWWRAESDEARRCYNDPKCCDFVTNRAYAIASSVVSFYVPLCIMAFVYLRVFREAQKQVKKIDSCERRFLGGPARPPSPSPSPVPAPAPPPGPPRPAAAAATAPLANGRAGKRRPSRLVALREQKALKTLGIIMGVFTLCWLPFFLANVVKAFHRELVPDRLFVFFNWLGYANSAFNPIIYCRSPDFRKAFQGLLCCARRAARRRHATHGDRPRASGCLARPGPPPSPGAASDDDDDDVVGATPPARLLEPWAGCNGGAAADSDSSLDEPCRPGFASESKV
T1 sequence (P14416 1-414 isoform P14416-2): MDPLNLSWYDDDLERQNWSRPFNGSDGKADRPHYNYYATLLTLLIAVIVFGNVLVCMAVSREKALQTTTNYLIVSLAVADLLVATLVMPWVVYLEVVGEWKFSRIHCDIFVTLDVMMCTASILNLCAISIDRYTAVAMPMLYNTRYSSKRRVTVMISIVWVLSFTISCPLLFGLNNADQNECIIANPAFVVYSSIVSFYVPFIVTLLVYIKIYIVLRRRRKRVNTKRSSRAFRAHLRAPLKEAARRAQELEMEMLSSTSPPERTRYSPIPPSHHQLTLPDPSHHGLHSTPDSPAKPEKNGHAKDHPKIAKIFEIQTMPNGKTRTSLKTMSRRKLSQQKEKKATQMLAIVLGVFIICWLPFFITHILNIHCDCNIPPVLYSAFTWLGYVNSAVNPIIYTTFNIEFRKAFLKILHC

Row | Structure (SMILES) | IC50 [1] | IC50 [2] | IC50 [3]
1 | C[C@@H](N(CCNCCc1ccc(O)c2c1OCC(=O)N2)C(=O)CCOCCc1cccc(-c2cnn(C)c2)c1)C(C)(C)C [Example 26, (R)—N-(3,3-Dimethylbutan-2-yl)-N-(2-(2-(5-hydroxy-3-oxo-3,4-dihydro-2H-benzo[b][1,4]oxazin-8-yl)ethylamino)ethyl)-3-(3-(1-methyl-1H-pyrazol-4-yl)phenethoxy)propanamide Trifluoroacetic Acid Salt] | 2510 nM | 501 nM | > 10000 nM
2 | CCCC[C@@H](C)N(CCNCCc1ccc(O)c2c1OCC(=O)N2)C(=O)CCOCCc1cccc(-c2cnn(C)c2)c1 [Example 30, (R)—N-(Hexan-2-yl)-N-(2-(2-(5-hydroxy-3-oxo-3,4-dihydro-2H-benzo[b][1,4]oxazin-8-yl)ethylamino)ethyl)-3-(3-(1-methyl-1H-pyrazol-4-yl)phenethoxy)propanamide Trifluoroacetic Acid Salt] | 2510 nM | 1000 nM | 3980 nM
3 | CC(C)n1cc(-c2cccc(CCOCCC(=O)N(CCNCCc3ccc(O)c4c3OCC(=O)N4)C3CCCCC3)c2)nn1 [Example 12, N-Cyclohexyl-N-(2-(2-(5-hydroxy-3-oxo-3,4-dihydro-2H-benzo[b][1,4]oxazin-8-yl)ethylamino)ethyl)-3-(3-(1-isopropyl-1H-1,2,3-triazol-4-yl)phenethoxy)propanamide Trifluoroacetic Acid Salt] | 3980 nM | 1580 nM | > 10000 nM
4 | CC(C)n1cc(-c2cccc(CCOCCC(=O)N(CCNCCc3ccc(O)c4c3OCC(=O)N4)C3CCCC3)c2)cn1 [Example 22, N-Cyclopentyl-N-(2-(2-(5-hydroxy-3-oxo-3,4-dihydro-2H-benzo[b][1,4]oxazin-8-yl)ethylamino)ethyl)-3-(3-(1-isopropyl-1H-pyrazol-4-yl)phenethoxy)propanamide Trifluoroacetic Acid Salt] | 2510 nM | 794 nM | 5010 nM
5 | CCn1cc(-c2cccc(CCOCCC(=O)N(CCNCCc3ccc(O)c4c3OCC(=O)N4)[C@H](C)C(C)(C)C)c2)cn1 [Example 25, (R)—N-(3,3-Dimethylbutan-2-yl)-3-(3-(1-ethyl-1H-pyrazol-4-yl)phenethoxy)-N-(2-(2-(5-hydroxy-3-oxo-3,4-dihydro-2H-benzo[b][1,4]oxazin-8-yl)ethylamino)ethyl)propanamide Trifluoroacetic Acid Salt] | 3980 nM | 316 nM | > 10000 nM
6 | CCn1cc(-c2cccc(CCOCCC(=O)N(CCNCCc3ccc(O)c4c3OCC(=O)N4)C3CCCCC3)c2)nn1 [Example 04, N-Cyclohexyl-3-(3-(1-ethyl-1H-1,2,3-triazol-4-yl)phenethoxy)-N-(2-(2-(5-hydroxy-3-oxo-3,4-dihydro-2H-benzo[b][1,4]oxazin-8-yl)ethylamino)ethyl)propanamide Trifluoroacetic Acid Salt] | 6310 nM | 2000 nM | > 10000 nM
7 | CCn1cc(-c2cccc(CCOCCC(=O)N(CCNCCc3ccc(O)c4c3OCC(=O)N4)C3CCCCC3)c2)cn1 [Example 28, N-Cyclohexyl-3-(3-(1-ethyl-1H-pyrazol-4-yl)phenethoxy)-N-(2-(2-(5-hydroxy-3-oxo-3,4-dihydro-2H-benzo[b][1,4]oxazin-8-yl)ethylamino)ethyl)propanamide] | > 5010 nM | 794 nM | > 10000 nM
8 | Cc1c(-c2cccc(CCOCCC(=O)N(CCNCCc3ccc(O)c4c3OCC(=O)N4)C3CCCCC3)c2)cnn1C [Example 37, N-Cyclohexyl-3-(3-(1,5-dimethyl-1H-pyrazol-4-yl)phenethoxy)-N-(2-(2-(5-hydroxy-3-oxo-3,4-dihydro-2H-benzo[b][1,4]oxazin-8-yl)ethylamino)ethyl)propanamide Trifluoroacetic Acid Salt] | 1580 nM | 1000 nM | > 10000 nM
9 | COCCn1cc(-c2cccc(CCOCCC(=O)N(CCNCCc3ccc(O)c4c3OCC(=O)N4)C3CCCCC3)c2)cn1 [Example 36, N-Cyclohexyl-N-(2-(2-(5-hydroxy-3-oxo-3,4-dihydro-2H-benzo[b][1,4]oxazin-8-yl)ethylamino)ethyl)-3-(3-(1-(2-methoxyethyl)-1H-pyrazol-4-yl)phenethoxy)propanamide Trifluoroacetic Acid Salt] | > 7940 nM | 2510 nM | > 10000 nM
10 | Cn1cc(-c2cc(F)cc(CCOCCC(=O)N(CCNCCc3ccc(O)c4c3OCC(=O)N4)C3CCCCC3)c2)cn1 [Example 17, N-Cyclohexyl-3-(3-fluoro-5-(1-methyl-1H-pyrazol-4-yl)phenethoxy)-N-(2-(2-(5-hydroxy-3-oxo-3,4-dihydro-2H-benzo[b][1,4]oxazin-8-yl)ethylamino)ethyl)propanamide Trifluoroacetic Acid Salt] | 2510 nM | 501 nM | 5010 nM
11 | Cn1nccc1-c1cccc(CCOCCC(=O)N(CCNCCc2ccc(O)c3c2OCC(=O)N3)C2CCCCC2)c1 [Example 03, N-Cyclohexyl-N-(2-(2-(5-hydroxy-3-oxo-3,4-dihydro-2H-benzo[b][1,4]oxazin-8-yl)ethylamino)ethyl)-3-(3-(1-methyl-1H-pyrazol-5-yl)phenethoxy)propanamide Trifluoroacetic Acid Salt] | 2510 nM | 2000 nM | > 10000 nM
